Results: ChEMBL document CHEMBL1201862, “PubChem BioAssay data set” (2004)
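Values below derive from 48-hour exposures of cells grown in 96-well plates, with endpoints linearly interpolated between the two concentrations bracketing the appropriate inhibition level. GI50 = concentration required for 50% inhibition of growth.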 Active and inactive are the calls of the source. No stated cut-off is given here; in the data, active = GI50 up to about 1.1 µM and inactive = higher.

Key:
Assay in all cases: NCI tumour cell line growth inhibition, 48 h
ACHN = system: ACHN
A549 = system: A549
RXF 393 = system: RXF 393
MDA-MB-435 = system: MDA-MB-435
CCRF-CEM = system: CCRF-CEM
Malme-3M = system: Malme-3M
SF-539 = system: SF-539
SN12C = system: SN12C
UACC-62 = system: UACC-62
Hs-578T = system: Hs-578T
LOX IMVI = system: LOX IMVI
CAKI-1 = system: CAKI-1
UO-31 = system: UO-31
OVCAR-8 = system: OVCAR-8
HT-29 = system: HT-29
IGROV-1 = system: IGROV-1
A498 = system: A498

Measured: GI50

c1cc2ccc3cc4ncccc4c4ccc(c1)c2c34
inactive: ACHN 6.87 µM | A549 9.31 µM | RXF 393 46.8 µM | MDA-MB-435 40.4 µM | CCRF-CEM 19.7 µM | Malme-3M 70.8 µM | SF-539 20.9 µM | SN12C 31.4 µM | UACC-62 20.6 µM | Hs-578T > 100 µM | LOX IMVI 12.1 µM | CAKI-1 18.5 µM | UO-31 5.43 µM | OVCAR-8 6.82 µM | HT-29 23.2 µM | IGROV-1 1.32 µM

CCOC(=O)C(Cc1ccc(OC(=O)OC(C)(C)C)cc1)NC(=O)OC(C)(C)C (configuration not stated)
inactive: ACHN 74.1 µM | A549 > 100 µM | RXF 393 53.2 µM | MDA-MB-435 38.2 µM | CCRF-CEM 21.9 µM | Malme-3M > 100 µM | SF-539 44.8 µM | SN12C 44.8 µM | UACC-62 > 100 µM | Hs-578T 47.5 µM | LOX IMVI 44.1 µM | CAKI-1 > 100 µM | UO-31 54.3 µM | OVCAR-8 37.4 µM | HT-29 > 100 µM | IGROV-1 50.1 µM

CCOC(=O)c1ccc(-c2cc(C)[nH]n2)[nH]1
inactive: ACHN > 100 µM | A549 > 100 µM | RXF 393 > 100 µM | MDA-MB-435 > 100 µM | CCRF-CEM > 100 µM | Malme-3M > 100 µM | SF-539 > 100 µM | SN12C > 100 µM | UACC-62 > 100 µM | LOX IMVI > 100 µM | CAKI-1 > 100 µM | UO-31 > 100 µM | OVCAR-8 > 100 µM | A498 50.4 µM | HT-29 > 100 µM

CC(C)(C)NCc1cc(C(C)(C)C)cc(-c2ccc(Cl)cc2)c1O
inactive: ACHN 13.8 µM | A549 16 µM | MDA-MB-435 12.6 µM | Malme-3M 13.8 µM | SF-539 11.9 µM | SN12C 15.2 µM | UACC-62 13.7 µM | Hs-578T 13.3 µM | CAKI-1 12.6 µM | UO-31 2.82 µM | HT-29 17.9 µM | IGROV-1 11.2 µM

C/C(=C\COP(=O)(O)OP(=O)(O)O)CC/C=C(\C)CNc1c(F)c(F)c(F)c(F)c1F
active: CCRF-CEM 0.126 µM
inactive: ACHN > 100 µM | A549 > 48.6 µM | RXF 393 > 22.9 µM | MDA-MB-435 > 100 µM | SF-539 97.1 µM | SN12C > 56.1 µM | UACC-62 > 51.9 µM | Hs-578T 31 µM | LOX IMVI > 100 µM | CAKI-1 > 100 µM | UO-31 > 100 µM | OVCAR-8 > 64.3 µM | HT-29 > 58.3 µM | IGROV-1 > 86.3 µM

Cc1cc(S(=O)(=O)Nc2nc(N)n[nH]2)c(SCC(=O)O)cc1Cl
inactive: ACHN > 10 µM | A549 > 10 µM | RXF 393 > 10 µM | CCRF-CEM > 10 µM | Malme-3M > 10 µM | SF-539 > 10 µM | SN12C > 10 µM | Hs-578T > 10 µM | LOX IMVI > 10 µM | CAKI-1 > 10 µM | UO-31 > 10 µM | OVCAR-8 > 10 µM | A498 > 10 µM | HT-29 > 10 µM | IGROV-1 > 10 µM

CCS(=O)(=O)c1c2cc(OC)ccc2nc2ccc(OC)cc12
inactive: ACHN > 100 µM | A549 > 100 µM | RXF 393 > 100 µM | MDA-MB-435 > 100 µM | CCRF-CEM > 100 µM | Malme-3M > 100 µM | SF-539 26.5 µM | SN12C > 100 µM | UACC-62 > 100 µM | LOX IMVI > 100 µM | CAKI-1 > 100 µM | UO-31 > 100 µM | OVCAR-8 > 100 µM | A498 > 100 µM | HT-29 > 100 µM | IGROV-1 > 100 µM

Nc1c(Br)cc(-c2cc(Br)c(N)c(Br)c2)cc1Br
inactive: ACHN > 100 µM | A549 > 100 µM | RXF 393 33.6 µM | MDA-MB-435 > 100 µM | CCRF-CEM > 100 µM | Malme-3M > 100 µM | SF-539 > 100 µM | SN12C > 100 µM | UACC-62 > 100 µM | Hs-578T 73.1 µM | LOX IMVI > 100 µM | CAKI-1 > 100 µM | UO-31 > 100 µM | OVCAR-8 > 100 µM | HT-29 > 100 µM | IGROV-1 > 100 µM

Cc1ccc(S(=O)(=O)N2C3C=CC(C3)[C@@H]2C(Cl)(Cl)Cl)cc1 (some centres not stated)
inactive: ACHN 14.3 µM | A549 18.7 µM | MDA-MB-435 27 µM | CCRF-CEM 17 µM | Malme-3M 18.9 µM | SF-539 12.3 µM | SN12C 24.2 µM | UACC-62 14.6 µM | Hs-578T 5.07 µM | LOX IMVI 18.5 µM | CAKI-1 13.3 µM | UO-31 15 µM | OVCAR-8 15.7 µM | HT-29 11.8 µM | IGROV-1 19.6 µM

COc1cc2c(c(OC)c1OC)-c1ccc(SC)c(=O)cc1[C@@H](OC(C)=O)CC2
active: ACHN < 0.01 µM | A549 < 0.01 µM | RXF 393 0.885 µM | MDA-MB-435 < 0.01 µM | CCRF-CEM < 0.01 µM | Malme-3M < 0.01 µM | SF-539 < 0.01 µM | SN12C < 0.01 µM | UACC-62 < 0.01 µM | Hs-578T < 0.01 µM | LOX IMVI < 0.01 µM | CAKI-1 < 0.01 µM | UO-31 < 0.01 µM | OVCAR-8 < 0.01 µM | HT-29 < 0.01 µM | IGROV-1 < 0.01 µM

Cc1ccc(SCC(OCn2cnc3c(N)ncnc32)[C@H](C)F)cc1 (some centres not stated)
inactive: ACHN > 100 µM | A549 > 100 µM | MDA-MB-435 > 100 µM | CCRF-CEM > 100 µM | Malme-3M > 100 µM | SF-539 > 100 µM | SN12C > 100 µM | UACC-62 > 100 µM | Hs-578T > 100 µM | LOX IMVI > 100 µM | CAKI-1 > 100 µM | UO-31 > 100 µM | OVCAR-8 > 100 µM | HT-29 > 100 µM | IGROV-1 > 100 µM

COc1ccc(/C=C2/C(=O)N(/C=C3\C(=O)Oc4ccccc4C3=O)/C(=N/C(C)=O)N2C)cc1OC
inactive: ACHN > 100 µM | A549 > 100 µM | RXF 393 > 100 µM | MDA-MB-435 > 100 µM | CCRF-CEM > 100 µM | Malme-3M > 100 µM | SF-539 > 100 µM | SN12C > 100 µM | UACC-62 > 100 µM | Hs-578T > 100 µM | LOX IMVI > 100 µM | CAKI-1 > 100 µM | OVCAR-8 > 100 µM | HT-29 > 100 µM | IGROV-1 > 100 µM

O=c1n(CCO)nc2n1CCCN2
inactive: ACHN > 100 µM | A549 > 100 µM | RXF 393 > 100 µM | MDA-MB-435 > 100 µM | CCRF-CEM > 100 µM | Malme-3M > 100 µM | SF-539 > 100 µM | SN12C > 100 µM | UACC-62 > 100 µM | Hs-578T > 100 µM | LOX IMVI > 100 µM | UO-31 > 100 µM | OVCAR-8 > 100 µM | HT-29 > 100 µM | IGROV-1 > 100 µM
